Results published in the supplement of paper PMC10307832.

What was measured:
Assay in all cases: relative viability (nuclei count vs DMSO), 5 days (fraction); higher = more cells survive
Carboplatin + Alpelisib = compound: C1CC(C1)(C(=O)O)C(=O)O.[NH2-].[NH2-].[Pt+2] [Carboplatin] + Cc1nc(NC(=O)N2CCC[C@H]2C(N)=O)sc1-c1ccnc(C(C)(C)C(F)(F)F)c1 [Alpelisib] (partner 2 µM)
Procedure, shortened: (§1)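 One day after seeding in 1536-well plates, lung cancer cell lines were dosed by pin tool. Dosing was either single-drug or a fixed anchor-drug dose plus five library-drug doses (not always all listed) in √10 steps. After 5 days, nuclei were stained in one fix-and-stain step and counted on 4× images, and relative viability is the nuclei count of treated wells over that of vehicle wells, given as the median of duplicate plates.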

GSK126 + Decitabine = compound: CC[C@H](C)N1C=C(C2=C(C=C(C=C21)C3=CN=C(C=C3)N4CCNCC4)C(=O)NCC5=C(C=C(NC5=O)C)C)C [GSK126] + Nc1ncn([C@H]2C[C@H](O)[C@@H](CO)O2)c(=O)n1 [Decitabine] (partner 2 µM)
Procedure, shortened: as §1

MLN4924 + Pictilisib = compound: NS(=O)(=O)OC[C@@H]1C[C@@H](n2ccc3c(N[C@H]4CCc5ccccc54)ncnc32)C[C@@H]1O [MLN4924] + CS(=O)(=O)N1CCN(Cc2cc3nc(-c4cccc5[nH]ncc45)nc(N4CCOCC4)c3s2)CC1 [Pictilisib] (partner 1 µM)
Procedure, shortened: as §1

MLN4924 + Phenformin = compound: NS(=O)(=O)OC[C@@H]1C[C@@H](n2ccc3c(N[C@H]4CCc5ccccc54)ncnc32)C[C@@H]1O [MLN4924] + N=C(N)NC(=N)NCCc1ccccc1 [Phenformin] (partner 250 µM)
Procedure, shortened: as §1

| Cell Line | relative viability (Carboplatin + Alpelisib; first compound 0.08 µM) | relative viability (Carboplatin + Alpelisib; first compound 0.253 µM) | relative viability (Carboplatin + Alpelisib; first compound 0.8 µM) | relative viability (Carboplatin + Alpelisib; first compound 2.53 µM) | relative viability (Carboplatin + Alpelisib; first compound 8 µM) | relative viability (GSK126 + Decitabine; first compound 0.08 µM) | relative viability (GSK126 + Decitabine; first compound 0.253 µM) | relative viability (GSK126 + Decitabine; first compound 0.8 µM) | relative viability (GSK126 + Decitabine; first compound 2.53 µM) | relative viability (GSK126 + Decitabine; first compound 8 µM) | relative viability (MLN4924 + Pictilisib; first compound 0.04 µM) | relative viability (MLN4924 + Pictilisib; first compound 0.1265 µM) | relative viability (MLN4924 + Pictilisib; first compound 0.4 µM) | relative viability (MLN4924 + Pictilisib; first compound 1.265 µM) | relative viability (MLN4924 + Pictilisib; first compound 4 µM) | relative viability (MLN4924 + Phenformin; first compound 0.04 µM) | relative viability (MLN4924 + Phenformin; first compound 0.1265 µM) | relative viability (MLN4924 + Phenformin; first compound 0.4 µM) | relative viability (MLN4924 + Phenformin; first compound 1.265 µM) | relative viability (MLN4924 + Phenformin; first compound 4 µM) |
| --- | --- | --- | --- | --- | --- | --- | --- | --- | --- | --- | --- | --- | --- | --- | --- | --- | --- | --- | --- | --- |
| NCI-H358 | 1.14 | 0.881 | 0.845 | 0.824 | 0.671 | 0.231 | 0.2 | 0.207 | 0.229 | 0.218 | 0.481 | 0.496 | 0.227 | 0.175 | 0.188 | 0.354 | 0.366 | 0.171 | 0.0905 | 0.0916 |
| NCI-H2342 |  |  |  |  |  | 0.75 | 0.7 | 0.7 | 0.628 | 0.812 |  |  |  |  |  | 0.705 | 0.661 | 0.613 | 0.551 | 0.501 |
| NCI-H2087 | 1.18 | 1.04 | 0.992 | 0.848 | 0.647 | 0.246 | 0.272 | 0.269 | 0.293 | 0.346 | 0.972 | 0.75 | 0.342 | 0.118 | 0.133 | 0.442 | 0.349 | 0.298 | 0.0782 | 0.0942 |
| NCI-H596 | 0.475 | 0.574 | 0.458 | 0.423 | 0.445 | 1.09 | 0.882 | 1.04 | 1.05 | 1.06 | 0.419 | 0.448 | 0.273 | 0.379 | 0.349 | 0.751 | 0.914 |  | 0.835 | 0.763 |
| ChaGo-K-1 |  |  |  |  |  | 0.526 | 0.506 | 0.525 | 0.537 | 0.544 | 0.515 | 0.434 | 0.369 | 0.258 | 0.272 | 0.315 | 0.298 | 0.24 | 0.199 | 0.176 |
| SW 1573 | 0.827 | 0.758 | 0.767 | 0.798 | 0.693 | 0.648 | 0.463 | 0.431 | 0.573 | 0.517 | 0.487 | 0.637 | 0.22 | 0.0805 | 0.0657 | 0.325 | 0.297 | 0.144 | 0.086 | 0.0734 |
| LCLC-97TM1 | 0.262 |  | 0.25 | 0.256 | 0.199 | 0.237 | 0.257 | 0.218 | 0.24 | 0.253 | 0.159 | 0.224 | 0.132 | 0.129 | 0.104 | 0.417 | 0.314 | 0.288 | 0.108 | 0.137 |
| HCC-366 | 0.476 | 0.552 | 0.344 | 0.294 | 0.314 | 0.34 | 0.34 | 0.336 | 0.463 | 0.338 | 0.232 | 0.496 | 0.326 | 0.102 | 0.0407 | 0.612 | 0.634 | 0.454 | 0.11 | 0.0866 |
| HARA | 0.814 | 0.812 | 0.714 | 0.719 | 0.73 | 0.628 | 0.629 | 0.403 | 0.519 | 0.402 | 0.552 | 0.388 | 0.184 | 0.0759 | 0.0734 | 0.35 | 0.355 | 0.177 | 0.0555 | 0.0476 |
| NCI-H1915 | 1.05 | 1.06 | 0.966 | 0.893 | 0.675 | 0.277 | 0.262 | 0.262 | 0.256 | 0.252 | 0.773 | 0.81 | 0.59 | 0.215 | 0.201 | 0.347 | 0.33 | 0.291 | 0.179 | 0.211 |
| NCI-H1650 |  |  |  |  |  | 0.437 | 0.541 | 0.522 | 0.402 | 0.495 | 0.373 | 0.245 | 0.182 | 0.124 | 0.183 | 0.398 | 0.339 | 0.231 | 0.146 | 0.198 |
| NCI-H650 | 1.13 | 1 | 1.06 | 0.856 | 0.757 | 0.33 | 0.293 | 0.311 | 0.299 | 0.322 | 0.79 | 0.508 | 0.335 | 0.208 | 0.214 | 0.355 | 0.287 | 0.224 | 0.197 | 0.199 |
| NCI-H522 |  |  |  |  |  | 0.717 | 0.587 | 0.716 | 0.581 | 0.683 |  |  |  |  |  | 0.642 | 0.676 | 0.454 | 0.424 | 0.293 |
| Calu-6 | 1 | 0.913 | 1.04 | 0.856 | 0.4 |  |  |  |  |  | 1.08 | 0.707 | 0.238 | 0.108 | 0.135 |  |  |  |  |  |
| IA-LM | 0.995 | 0.904 | 0.669 | 0.881 | 0.465 |  |  |  |  |  | 0.342 | 0.145 | 0.0958 | 0.0574 | 0.0645 |  |  |  |  |  |
| CAL-12T | 1.18 | 1.05 | 1.2 | 1.23 | 1.12 |  |  |  |  |  |  | 0.41 | 0.299 | 0.237 | 0.156 | 0.511 | 0.511 | 0.292 | 0.214 | 0.129 |
| EBC-1 | 0.85 | 0.827 | 0.809 | 0.799 | 0.77 |  |  |  |  |  | 0.488 | 0.372 | 0.245 | 0.11 | 0.162 |  |  |  |  |  |
| SW 900 |  |  |  |  |  | 0.444 | 0.356 | 0.459 | 0.487 | 0.462 |  |  |  |  |  | 0.205 | 0.483 | 0.258 | 0.15 | 0.128 |
| NCI-H1703 | 0.373 | 0.335 | 0.417 | 0.407 | 0.421 |  |  |  |  |  | 0.181 | 0.162 | 0.165 | 0.155 | 0.174 |  |  |  |  |  |
| NCI-H1563 | 1.04 | 0.925 | 0.91 | 0.921 | 0.984 |  |  |  |  |  | 0.802 | 0.646 | 0.581 | 0.535 | 0.586 | 0.832 | 0.87 | 0.666 | 0.498 | 0.57 |
| NCI-H1623 |  |  |  |  |  |  |  |  |  |  |  |  |  |  |  | 0.503 | 0.479 | 0.39 | 0.274 | 0.248 |
